Source: patent US20130252930A1 (BIOMARIN PHARMACEUTICAL INC., priority 2010, published 2013)
Read-outs that look alike come from different tables or passages of the source.

Columns and labels:
[1] = target: T1, Cyp21 enzyme (Human HEK 293-Cyp21 stable transfected cells) (Homo sapiens, UniProt P08686); assay: CYP21-HEK293 enzymatic assay (IC50) (Biological Example 11); type: cell-based; conditions: HEK 293-Cyp21 cells
T1 construct: expressed in transfected cells
T1 sequence (P08686 1-495): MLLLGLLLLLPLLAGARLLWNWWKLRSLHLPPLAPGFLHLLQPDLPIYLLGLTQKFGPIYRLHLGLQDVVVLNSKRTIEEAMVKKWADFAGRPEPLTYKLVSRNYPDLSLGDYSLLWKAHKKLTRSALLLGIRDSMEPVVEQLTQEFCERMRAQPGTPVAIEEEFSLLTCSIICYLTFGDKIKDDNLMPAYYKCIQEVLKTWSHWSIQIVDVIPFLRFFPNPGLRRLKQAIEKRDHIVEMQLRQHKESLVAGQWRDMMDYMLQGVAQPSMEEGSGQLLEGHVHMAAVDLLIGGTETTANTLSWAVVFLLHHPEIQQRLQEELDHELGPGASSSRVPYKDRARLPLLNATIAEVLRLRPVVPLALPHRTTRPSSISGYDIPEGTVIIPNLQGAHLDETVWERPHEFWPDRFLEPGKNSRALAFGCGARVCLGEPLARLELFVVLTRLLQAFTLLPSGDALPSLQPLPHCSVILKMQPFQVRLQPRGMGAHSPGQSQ
Experimental: This assay was used to determine compound activity against Cyp21 enzyme. […] The next day, 20 μL medium was carefully removed and 10 μL of 10× pre-made compounds in DMEM+10% FBS+10% methanol was transferred to the wells to final concentrations of 1000, 100, 10, 1, or 0.1 nM. Mock treatment was 1% methanol in growth media and the cells were left at 37° C., 5% CO2 for 5 hr. After the incubation, 10 μL of substrate progesterone (Sigma) was added to the wells to make a final concentration of 10 μM. The cells were incubated the cells at 37° C. for 20 hr. At the end of incubation, 90 μL of conditioned media was removed to measure DOC level by ELISA.
The next day, the plates were washed twice with 250 μl of wash solution (0.015M PBS pH 7.4 containing 0.05% Tween 20). After being washed, the wells were blocked with 250 μL blocking buffer (3% BSA in 0.025M PBS, pH 7.4) at 37° C. for 2 h. The plates were washed again 3 times as before, and then 90 μL of sample /standards (prepared in complete growth media) was added into the appropriate wells followed by 10 μL of antibody solution (1:450 rabbit anti-DOC in 0.6% BSA/PBS). The plates were incubated at room temperature for 2 h on a shaker. The contents of the wells were removed and the plate was washed 4 times. After the final wash, 100 μL of secondary antibody (1:12000 HRP-goat-anti-rabbit IgG conjugate 0.6% BSA/PBS) was added into each well. […] The plate was washed again 4 times and 100 μL of TMB substrate solution was added to each well. The plate was incubated at room temperature for 10 min. 100 μL of stop solution was added to each well and the optical density was read at 450 nm.
The mean absorbance value for each sample was used to determine the corresponding concentration from the standard curve. Data was analyzed with “log(antagonist) vs response variable slope” under “non-linear regression analysis” using Prism5 software.

[2] = Human liver microsome stability assay (Biological Example 8b); conditions: liver microsomes, pH 7.4
Experimental: The reaction was started with addition of excess NADPH (5 mg/mL, 15 μL in 0.1 M potassium phosphate buffer, 1.0 mM EDTA, pH 7.4), the total volume is 45 μL (compound final concentration was 1 μM). […] 50 μL of the supernatant was transferred from each well into a 96-well sample plate containing 50 μL of ultra-pure water (Millipore) for LC-MS/MS analysis.

[3] = target: T2, CYP17 (H295R cells) (Homo sapiens, UniProt P05093); assay: CYP17 cellular assay (IC50), testosterone in H295R cells (Biological Example 7); type: cell-based
T2 construct: endogenous in cells; host or cells: H295R cells
T2 sequence (P05093 1-508): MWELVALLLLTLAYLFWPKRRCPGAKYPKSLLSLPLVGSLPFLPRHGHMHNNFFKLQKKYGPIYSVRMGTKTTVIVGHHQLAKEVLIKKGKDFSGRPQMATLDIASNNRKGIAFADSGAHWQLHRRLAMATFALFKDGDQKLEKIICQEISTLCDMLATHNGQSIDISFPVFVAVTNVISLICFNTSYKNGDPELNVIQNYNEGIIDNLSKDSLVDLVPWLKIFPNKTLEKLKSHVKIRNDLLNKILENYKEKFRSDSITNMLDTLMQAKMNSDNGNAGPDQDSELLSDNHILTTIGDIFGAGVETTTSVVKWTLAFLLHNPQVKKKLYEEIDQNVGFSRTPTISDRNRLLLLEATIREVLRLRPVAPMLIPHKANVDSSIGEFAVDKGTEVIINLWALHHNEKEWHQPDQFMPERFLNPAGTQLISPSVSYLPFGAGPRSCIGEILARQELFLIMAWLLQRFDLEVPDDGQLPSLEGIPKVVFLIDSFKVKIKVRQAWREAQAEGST
Experimental: The assays were performed in 96-well plates. Typically H295R cells were seeded at 4.5×10^4 cells/well in 100 μL Growth Medium containing DMEM/F-12 (Gibco/Invitrogen; 11330-032), 2.5% Nu-Serum (BD Bioscience; 355100) and ITS (BD Bioscience; 354352), and cultured at 37° C., 5% CO2 for 24 hr. The next day, media were carefully removed and cells were washed twice with 200 μL 1×HBSS++. Test compounds were then added to the cells at 100, 10, 1, 0.1 nM final concentrations in 125 μL volume per well in serum-free media containing DMEM/F-12 and ITS+ Premix (BD Bioscience; 354352) with 0.1% methanol. Serum-free media with 0.1% methanol without test compound was used as control. Cells were incubated with compounds at 37° C. for additional 24 hours, and the cultured media from each compound treated well was harvested for measurement of testosterone concentration by ELISA according to manufacturer's instruction (Assay Design). Testosterone concentration of each sample was plotted vs. the concentration of the test compounds.

[4] = target: T3, CYP17 (human testicular microsome) (Homo sapiens, UniProt P05093); assay: CYP17 enzymatic assay (IC50) (Biological Example 4); type: biochemical
T3 construct: using microsomal fraction from human testis (Celsis Cat #S00110) as the enzyme source; tissue Celsis S00110; host or cells: human testis microsomal fraction
T3 sequence (P05093 1-508): T2 sequence (P05093 1-508)

[5] = target: T3, CYP17 (human testicular microsome); assay: CYP17 enzymatic assay (% inhibition at 1 nM) (Biological Example 12); type: biochemical; conditions: compound at 1 nM
[6] = read-out: CYP21-HEK293 enzymatic assay IC50 (Biological Example No. 11)
[7] = H295R cells, testosterone, read-out: CYP17 cellular assay IC50 (Biological Example No. 7)
[8] = human testicular microsome, read-out: CYP17 enzymatic assay IC50 (Biological Example No. 4)
[9] = read-out: CYP17 enzymatic assay % inhibition at 1 nM (Biological Example No. 12)
[10] = read-out: Biological Example No. 11: CYP21-HEK293 enzymatic assay IC50
[11] = H295R cells, testosterone, read-out: Biological Example No. 7: CYP17 cellular assay IC50
[12] = human testicular microsome, read-out: Biological Example No. 4: CYP17 enzymatic assay IC50
[13] = read-out: Biological Example No. 12: CYP17 enzymatic assay % inhibition at 1 nM

Row | SMILES | IC50 [1, 6] [µM] | half-life at 1 μM [2] [min] | IC50 [3, 7] [µM] | IC50 [4, 8] [µM] | inhibition at 0.001 µM [5, 9] [%] | IC50 [1, 10] [µM] | IC50 [3, 11] [µM] | IC50 [4, 12] [µM] | inhibition at 0.001 µM [5, 13] [%] | IC50 [4] [µM] | IC50 [3] [µM]
1 | C[C@]12CC[C@H]3[C@@H](CCC4=CC(=O)C=C[C@@]43C)C1=CC=C2c1cccnc1 [Compound 290, (10R,13S)-10,13-dimethyl-17-(pyridin-3-yl)-6,7,8,9,10,11,12,13-octahydro-3H-cyclopenta[a]phenanthren-3-one] | 0.01 to 0.1 | 1 to 50 | < 0.015 | < 0.011 | > 50 | – | – | – | – | – | –
2 | CC1=C2CC[C@@H]3[C@H](CC[C@]4(C)C(c5cccnc5)=CC[C@@H]34)[C@@]2(C)CCC1=O [Compound 300, (10R,13S)-4,10,13-trimethyl-17-(pyridin-3-yl)-6,7,8,9,10,11,12,13,14,15-decahydro-1H-cyclopenta[a]phenanthren-3(2H)-one] | – | – | – | – | – | > 1 | < 0.015 | < 0.011 | > 50 | – | –
3 | CC1C[C@@H]2[C@H](CC[C@]3(C)C(c4cccnc4)=CC[C@@H]23)[C@@]2(C)CCC(=O)C=C12 (stereo partly drawn) [Compound 309, (10R,13S)-6,10,13-trimethyl-17-(pyridin-3-yl)-6,7,8,9,10,11,12,13,14,15-decahydro-1H-cyclopenta[a]phenanthren-3(2H)-one] | 0.01 to 0.1 | 1 to 50 | < 0.015 | – | > 50 | – | – | – | – | < 0.011 | –
4 | C=C1C[C@@H]2[C@H](CC[C@]3(C)C(c4cccnc4)=CC[C@@H]23)[C@@]2(C)C=CC(=O)C=C12 [Compound 311, (10R,13S)-10,13-dimethyl-6-methylene-17-(pyridin-3-yl)-6,7,8,9,10,11,12,13,14,15-decahydro-3H-cyclopenta[a]phenanthren-3-one] | < 0.01 | 1 to 50 | < 0.015 | < 0.011 | > 50 | – | – | – | – | – | –
5 | C=C1C[C@@H]2[C@H](CC[C@]3(C)C(c4cccnc4)=CC[C@@H]23)[C@@]2(C)CCC(=O)C=C12 [Compound 312, (10R,13S)-10,13-dimethyl-6-methylene-17-(pyridin-3-yl)-6,7,8,9,10,11,12,13,14,15-decahydro-1H-cyclopenta[a]phenanthren-3(2H)-one] | 0.01 to 0.1 | 1 to 50 | < 0.015 | < 0.011 | > 50 | – | – | – | – | – | –
6 | C[C@]12CCC(=O)C=C1C1(CC1)C[C@@H]1[C@@H]2CC[C@]2(C)C(c3cccnc3)=CC[C@@H]12 [Compound 313, (10R,13S)-10,13-dimethyl-17-(pyridin-3-yl)-1,7,8,9,10,11,12,13,14,15-decahydrospiro[cyclopenta[a]phenanthrene-6,1′-cyclopropan]-3(2H)-one] | < 0.01 | 1 to 50 | < 0.015 | < 0.011 | > 50 | – | – | – | – | – | –
7 | C[C@]12C=CC(=O)C=C1C1(CC1)C[C@@H]1[C@@H]2CC[C@]2(C)C(c3cccnc3)=CC[C@@H]12 [Compound 316, (10R,13S)-10,13-dimethyl-17-(pyridin-3-yl)-7,8,9,11,12,13,14,15-octahydrospiro[cyclopenta[a]phenanthrene-6,1′-cyclopropan]-3(10H)-one] | – | 1 to 50 | – | – | – | < 0.01 | < 0.015 | – | 10 to 50 | < 0.011 | –
8 | CC1C[C@@H]2[C@H](CC[C@]3(C)C(c4cccnc4)=CC[C@@H]23)[C@@]2(C)C=CC(=O)C=C12 (stereo partly drawn) [Compound 318, (10R,13S)-6,10,13-trimethyl-17-(pyridin-3-yl)-6,7,8,9,10,11,12,13,14,15-decahydro-3H-cyclopenta[a]phenanthren-3-one] | – | 1 to 50 | – | – | – | < 0.01 | < 0.015 | – | > 50 | – | –
9 | C=C1C[C@@H]2[C@H](CC[C@]3(C)C(c4cncc(F)c4)=CC[C@@H]23)[C@@]2(C)C=CC(=O)C=C12 [Compound 320, (10R,13S)-17-(5-fluoropyridin-3-yl)-10,13-dimethyl-6-methylene-6,7,8,9,10,11,12,13,14,15-decahydro-3H-cyclopenta[a]phenanthren-3-one] | – | 1 to 50 | – | – | – | > 0.1 | < 0.015 | < 0.011 | – | – | –
10 | CC1CC2C3=CC=C(c4cncc(F)c4)[C@@]3(C)CCC2[C@@]2(C)CCC(=O)C=C12 (stereo partly drawn) [Compound 327, (10R,13S)-17-(5-fluoropyridin-3-yl)-6,10,13-trimethyl-6,7,8,9,10,11,12,13-octahydro-1H-cyclopenta[a]phenanthren-3(2H)-one] | – | 1 to 50 | – | – | – | < 0.01 | – | – | 10 to 50 | – | < 0.015
11 | CC1CC2C(CC[C@]3(C)C(c4cncc(F)c4)=CCC23)[C@@]2(C)CCC(=O)C=C12 (stereo partly drawn) [Compound 342, (10R,13S)-17-(5-fluoropyridin-3-yl)-6,10,13-trimethyl-6,7,8,9,10,11,12,13,14,15-decahydro-1H-cyclopenta[a]phenanthren-3(2H)-one] | – | – | – | – | – | > 0.1 | < 0.015 | < 0.011 | > 50 | – | –
12 | C[C@]12CC[C@H]3[C@@H](CCC4=CC(=O)CC[C@@]43C)C1=CC=C2c1cncc(F)c1 [Compound 352, (10R,13S)-17-(5-fluoropyridin-3-yl)-10,13-dimethyl-6,7,8,9,10,11,12,13-octahydro-1H-cyclopenta[a]phenanthren-3(2H)-one] | – | 1 to 50 | – | – | – | 0.01 to 0.1 | < 0.015 | < 0.011 | > 50 | – | –
13 | CC1CC2C(CC[C@]3(C)C(c4cccnc4)=CCC23)[C@@]2(C)CCNC(=O)C=C12 (stereo partly drawn) [Compound 368, (5aR,7aS)-5a,7a,12-trimethyl-8-(pyridin-3-yl)-3,4,5,5a,5b,6,7,7a,10,10a,11,12-dodecahydrocyclopenta[5,6]naphtho[1,2-d]azepin-2(10bH)-one] | – | 1 to 50 | – | – | – | < 0.01 | < 0.015 | < 0.011 | > 50 | – | –
14 | C[C@]12CCNC(=O)C=C1C1(CC1)CC1C2CC[C@]2(C)C(c3cccnc3)=CCC12 (stereo partly drawn) [Compound 369, (5aR,7aS)-5a,7a-dimethyl-8-(pyridin-3-yl)-3,4,5,5a,5b,6,7,7a,10,10a,10b,11-dodecahydro-2H-spiro[cyclopenta[5,6]naphtho[1,2-d]azepine-12,1′-cyclopropan]-2-one] | – | 1 to 50 | – | – | – | < 0.01 | < 0.015 | < 0.011 | 10 to 50 | – | –
15 | C[C@]12CCNC(=O)C=C1C1CC1[C@@H]1[C@@H]2CC[C@]2(C)C(c3cncc(F)c3)=CC[C@@H]12 (stereo partly drawn) [Compound 388, (5aR,7aS)-8-(5-fluoropyridin-3-yl)-5a,7a-dimethyl-3,4,5,5a,5b,6,7,7a,10,10a,10b,10c,11,11a-tetradecahydro-2H-cyclopenta[5,6]cyclopropa[3,4]naphtho[1,2-d]azepin-2-one] | – | 1 to 50 | – | – | – | > 1 | < 0.015 | < 0.011 | > 50 | – | –
